Source: US20230233569A1 (Revolution Medicines, Inc., priority 2020, published 2023)

Tests used:
Format in all cases: biochemical
KRAS G12V [1] = biological target: T1, KRAS G12V (Homo sapiens, UniProt P01116+P62937, G12V); assay: Disruption of BRAF RBD interaction with Ras (FRET / MOA assay, with Cyclophilin A); details: KRAS G12V; read-out: KRAS G12V FRET data IC50
Procedure, shortened: (§1)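 TR-FRET readout: a drop in ratio relative to DMSO wells marks disruption of the K-Ras:BRAF RBD complex via compound-induced K-Ras–Cyclophilin A ternary complex. Dosing used ten 3-fold steps from 30 μM final, 3 h at 25 °C, then Eu-anti-His 10 nM plus APC-anti-GST 50 nM for another 1.5 h. Values are IC50s.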

KRAS Q61H = KRAS Q61H (Homo sapiens, UniProt P01116+P62937, Q61H); assay: as above; details: KRAS Q61H; read-out: KRAS Q61H FRET data IC50
Chain of KRAS Q61H (P01116 1-169 isoform P01116-2 Q61H limits assumed): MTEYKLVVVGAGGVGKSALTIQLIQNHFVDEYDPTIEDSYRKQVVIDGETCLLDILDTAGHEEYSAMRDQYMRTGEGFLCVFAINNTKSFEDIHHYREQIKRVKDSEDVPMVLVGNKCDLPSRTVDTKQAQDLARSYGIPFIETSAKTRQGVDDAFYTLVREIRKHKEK
Chain of KRAS Q61H (P62937 whole entry, the tested form may be a part): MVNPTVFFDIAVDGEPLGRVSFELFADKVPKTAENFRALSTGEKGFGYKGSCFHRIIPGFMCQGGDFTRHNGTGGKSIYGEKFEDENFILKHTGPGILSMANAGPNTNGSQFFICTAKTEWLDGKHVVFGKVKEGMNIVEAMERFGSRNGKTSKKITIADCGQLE
Text: Disruption of B-Raf Ras-Binding Domain (BRAF^RBD) Interaction with K-Ras by Compounds of the Invention (Also Called a FRET Assay or an MOA Assay)
Note—The following protocol describes a procedure for monitoring disruption of K-Ras G12C (GMP-PNP) binding to BRAF^RBD by a compound of the invention. This protocol may also be executed substituting other Ras proteins or nucleotides.
(§2) The purpose of this biochemical assay was to measure the ability of test compounds to facilitate ternary complex formation between a nucleotide-loaded K-Ras isoform and Cyclophilin A; the resulting ternary complex disrupts binding to a BRAF^RBD construct, inhibiting K-Ras signaling through a RAF effector. Data is reported as IC50 values.
In assay buffer containing 25 mM HEPES pH 7.3, 0.002% Tween20, 0.1% BSA, 100 mM NaCl and 5 mM MgCl2, tagless Cyclophilin A, His6-K-Ras-GMPPNP, and GST-BRAF^RBD were combined in a 384-well assay plate at final concentrations of 25 μM, 12.5 nM and 50 nM, respectively. Compound was present in plate wells as a 10-point 3-fold dilution series starting at a final concentration of 30 μM. After incubation at 25° C. for 3 hours, a mixture of Anti-His Eu-W1024 and anti-GST allophycocyanin was then added to assay sample wells at final concentrations of 10 nM and 50 nM, respectively, and the reaction incubated for an additional 1.5 hours. […] Compounds that facilitate disruption of a K-Ras:RAF complex were identified as those eliciting a decrease in the TR-FRET ratio relative to DMSO control wells.
as §2, with “BRAF^RBDD” for “BRAF^RBD”

KRAS G13D [2] = biological target: T2, KRAS G13D (Homo sapiens, UniProt P01116+P62937, G13D); assay: as above; details: KRAS G13D; read-out: KRAS G13D FRET data IC50
T2 sequence (P01116 1-169 isoform P01116-2 G13D limits assumed): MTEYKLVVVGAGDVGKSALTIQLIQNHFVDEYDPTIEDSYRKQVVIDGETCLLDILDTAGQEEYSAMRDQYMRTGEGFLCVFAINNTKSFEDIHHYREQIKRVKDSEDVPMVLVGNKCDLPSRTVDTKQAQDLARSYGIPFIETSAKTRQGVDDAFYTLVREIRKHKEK
T2 sequence (P62937 whole entry): as the sequence (P62937 whole entry, the tested form may be a part) above
Procedure, shortened: as §1

NRAS G12C [3] = biological target: T3, NRAS G12C (Homo sapiens, UniProt P01111+P62937, G12C); assay: as above; details: NRAS G12C; read-out: NRAS G12C FRET data IC50
T3 sequence (P01111 whole entry G12C): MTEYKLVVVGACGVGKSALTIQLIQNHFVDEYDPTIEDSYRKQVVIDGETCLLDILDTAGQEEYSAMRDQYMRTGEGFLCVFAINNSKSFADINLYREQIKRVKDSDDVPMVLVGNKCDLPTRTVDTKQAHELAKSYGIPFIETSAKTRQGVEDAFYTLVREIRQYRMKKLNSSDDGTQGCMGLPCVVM
T3 sequence (P62937 whole entry): as the sequence (P62937 whole entry, the tested form may be a part) above

KRAS G12C [4] = biological target: T4, KRAS G12C (Homo sapiens, UniProt P01116+P62937, G12C); assay: as above; details: KRAS G12C; read-out: KRAS G12C FRET data IC50
Procedure, shortened: as §1
Target sequence in this assay (P01116 1-169 isoform P01116-2 G12C): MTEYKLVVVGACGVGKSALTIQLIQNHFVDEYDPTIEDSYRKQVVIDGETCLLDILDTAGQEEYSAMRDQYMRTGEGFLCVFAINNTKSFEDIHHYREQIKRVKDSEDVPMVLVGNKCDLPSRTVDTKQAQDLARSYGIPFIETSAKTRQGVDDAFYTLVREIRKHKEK
Target sequence in this assay (P62937 whole entry): as the sequence (P62937 whole entry, the tested form may be a part) above

KRAS G12C [5] = biological target: T4, KRAS G12C; assay: Ras-Raf disruption / FRET / MOA assay (BRAF RBD); details: Ras-Raf disruption, with Cyclophilin A; read-out: KRAS G12C FRET data IC50
Procedure, shortened: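 TR-FRET read-out after 1.5 h with anti-His Eu-W1024 (10 nM) and anti-GST APC (50 nM), following 3 h at 25 °C of compound (top 30 μM, 3-fold, 10 points) with 25 μM Cyclophilin A, 12.5 nM GMPPNP-loaded K-Ras G12C and 50 nM BRAF RBD; IC50 reported.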
Target sequence in this assay (P01116 1-169 isoform P01116-2 G12C limits assumed): as the sequence (P01116 1-169 isoform P01116-2 G12C) above
Target sequence in this assay (P62937 whole entry): as the sequence (P62937 whole entry, the tested form may be a part) above

KRAS WT = KRAS WT (Homo sapiens, UniProt P01116+P62937); assay: Ras-Raf disruption / FRET / MOA assay (BRAF RBD); details: Ras-Raf disruption, with Cyclophilin A; read-out: KRAS WT FRET data IC50
Chain of KRAS WT (P01116 1-169 isoform P01116-2 limits assumed): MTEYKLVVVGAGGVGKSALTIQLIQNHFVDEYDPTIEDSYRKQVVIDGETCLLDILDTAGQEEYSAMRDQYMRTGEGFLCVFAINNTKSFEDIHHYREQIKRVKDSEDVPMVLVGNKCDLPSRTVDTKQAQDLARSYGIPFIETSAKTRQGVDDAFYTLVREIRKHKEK
Chain of KRAS WT (P62937 whole entry): as the sequence (P62937 whole entry, the tested form may be a part) above
Procedure, shortened: (§3)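 Compound-induced Ras–Cyclophilin A ternary complex disrupting BRAF RBD binding, read as IC50 from reduced TR-FRET ratio relative to DMSO. Final: Ras-GMPPNP 12.5 nM, BRAF RBD 50 nM, Cyclophilin A 25 μM, top compound 30 μM (3-fold, 10 points); 3 h at 25 °C, then 1.5 h with detection antibodies.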

KRAS G13D [6] = biological target: T2, KRAS G13D; assay: Ras-Raf disruption / FRET / MOA assay (BRAF RBD); details: Ras-Raf disruption, with Cyclophilin A; read-out: KRAS G13D FRET data IC50
Procedure, shortened: as §3

KRAS G12V [7] = biological target: T1, KRAS G12V; assay: Ras-Raf disruption / FRET / MOA assay (BRAF RBD); details: Ras-Raf disruption, with Cyclophilin A; read-out: KRAS G12V FRET data IC50
Procedure, shortened: as §3

NRAS G12C [8] = biological target: T3, NRAS G12C; assay: Ras-Raf disruption / FRET / MOA assay (BRAF RBD); details: NRAS G12C; read-out: NRAS G12C FRET data IC50
Procedure, shortened: as §3

KRAS G12S = KRAS G12S (Homo sapiens, UniProt P01116+P62937, G12S); assay: Ras-Raf disruption / FRET / MOA assay (BRAF RBD); details: Ras-Raf disruption, with Cyclophilin A; read-out: KRAS G12S FRET data IC50
Chain of KRAS G12S (P01116 1-169 isoform P01116-2 G12S limits assumed): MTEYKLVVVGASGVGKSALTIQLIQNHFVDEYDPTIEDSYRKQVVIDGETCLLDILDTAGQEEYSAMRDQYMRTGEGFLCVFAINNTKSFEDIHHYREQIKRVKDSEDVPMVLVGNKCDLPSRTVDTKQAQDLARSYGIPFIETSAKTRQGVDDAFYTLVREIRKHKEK
Chain of KRAS G12S (P62937 whole entry): as the sequence (P62937 whole entry, the tested form may be a part) above
Procedure, shortened: as §3

KRAS G12D = KRAS G12D (Homo sapiens, UniProt P01116+P62937, G12D); assay: Ras-Raf disruption / FRET / MOA assay (BRAF RBD); details: Ras-Raf disruption, with Cyclophilin A; read-out: KRAS G12D FRET data IC50
Chain of KRAS G12D (P01116 1-169 isoform P01116-2 G12D limits assumed): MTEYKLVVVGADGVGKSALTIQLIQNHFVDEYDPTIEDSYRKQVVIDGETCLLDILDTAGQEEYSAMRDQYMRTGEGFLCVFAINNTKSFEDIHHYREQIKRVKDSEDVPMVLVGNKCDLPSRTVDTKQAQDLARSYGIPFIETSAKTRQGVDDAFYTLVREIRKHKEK
Chain of KRAS G12D (P62937 whole entry): as the sequence (P62937 whole entry, the tested form may be a part) above
Procedure, shortened: as §3

KRAS G13C = KRAS G13C (Homo sapiens, UniProt P01116+P62937, G13C); assay: Ras-Raf disruption / FRET / MOA assay (BRAF RBD); details: Ras-Raf disruption, with Cyclophilin A; read-out: KRAS G13C FRET data IC50
Chain of KRAS G13C (P01116 1-169 isoform P01116-2 G13C limits assumed): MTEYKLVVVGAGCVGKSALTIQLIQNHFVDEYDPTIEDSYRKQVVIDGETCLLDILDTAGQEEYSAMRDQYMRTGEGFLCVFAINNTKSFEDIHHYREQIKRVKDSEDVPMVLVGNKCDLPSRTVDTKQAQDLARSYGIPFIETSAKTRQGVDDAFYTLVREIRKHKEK
Chain of KRAS G13C (P62937 whole entry): as the sequence (P62937 whole entry, the tested form may be a part) above
Procedure, shortened: as §3

T1 sequence (P01116 1-169 isoform P01116-2 G12V limits assumed): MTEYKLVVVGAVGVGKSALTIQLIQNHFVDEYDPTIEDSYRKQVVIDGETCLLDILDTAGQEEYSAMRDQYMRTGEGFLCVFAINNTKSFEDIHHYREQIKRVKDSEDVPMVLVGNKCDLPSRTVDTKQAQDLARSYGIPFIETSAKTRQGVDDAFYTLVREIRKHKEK
T1 sequence (P62937 whole entry): as the sequence (P62937 whole entry, the tested form may be a part) above

SMILES | IC50 (KRAS G12V [1]) [nM] | IC50 (KRAS Q61H) [nM] | IC50 (KRAS G13D [2]) [nM] | IC50 (NRAS G12C [3]) [nM] | IC50 (KRAS G12C [4]) [nM] | IC50 (KRAS G12C [5]) [nM] | IC50 (KRAS WT) [nM] | IC50 (KRAS G13D [6]) [nM] | IC50 (KRAS G12V [7]) [nM] | IC50 (NRAS G12C [8]) [nM] | IC50 (KRAS G12S) [nM] | IC50 (KRAS G12D) [nM] | IC50 (KRAS G13C) [nM]
CCn1c(-c2cccnc2[C@H](C)OC)c2c3cc(ccc31)-c1csc(n1)C[C@H](NC(=O)[C@H](C(C)C)N(C)C(=O)[C@H]1[C@@H]3CNC[C@@H]31)C(=O)N1CCC[C@H](N1)C(=O)OCC(C)(C)C2 (atropisomer, axis not shown) [Example A448] | > 10000 | 1000 to 10000 |  |  |  |  |  |  |  |  |  |  | 
CCn1c(-c2cccnc2[C@H](C)OC)c2c3nc(ccc31)-c1csc(n1)C[C@H](NC(=O)[C@H](C(C)C)N(C)C(=O)N1CC(OC)C1)C(=O)N1CCC[C@H](N1)C(=O)OCC(C)(C)C2 (atropisomer, axis not shown) [Example A613] |  | 1000 to 10000 |  |  |  |  |  |  |  |  |  |  | 
CCn1c(-c2cccnc2[C@H](C)OC)c2c3cc(ccc31)-c1cccc(c1)C[C@H](NC(=O)[C@H](C(C)C)N(C)C(=O)N1CCC13CN(C(=O)C#CC(C)(C)N(C)C)C3)C(=O)N1CCC[C@H](N1)C(=O)OCC(C)(C)C2 (atropisomer, axis not shown) [Example A717] |  | 100 to 1000 | 1000 to 10000 | 100 to 1000 | 100 to 1000 |  |  |  |  |  |  |  | 
CCn1c(-c2cccnc2[C@H](C)OC)c2c3cc(ccc31)-c1cc(O)cc(c1)C[C@H](NC(=O)[C@H](C1CCCC1)N1CC[C@]3(CCN(C(=O)[C@H]4CN4)C3)C1=O)C(=O)N1CCC[C@H](N1)C(=O)OCC(C)(C)C2 [Example 175, (2S)-2-((S)-7-((R)-aziridine-2-carbonyl)-1-oxo-2,7-diazaspiro[4.4]nonan-2-yl)-2-cyclopentyl-N-((6^3S,4S)-1^1-ethyl-2^5-hydroxy-1^2-(2-((S)-1-methoxyethyl)pyridin-3-yl)-10,10-dimethyl-5,7-dioxo-6^1,6^2,6^3,6^4,6^5,6^6-hexahydro-1^1H-8-oxa-1(5,3)-indola-6(1,3)-pyridazina-2(1,3)-benzenacycloundecaphane-4-yl)acetamide] |  |  |  |  |  | < 10 | 10 to 100 | 10 to 100 | 10 to 100 | < 10 | 10 to 100 | 10 to 100 | 10 to 100
CCn1c(-c2cccnc2[C@H](C)OC)c2c3cc(ccc31)-c1cc(O)cc(c1)C[C@H](NC(=O)[C@H](C(C)C)N(C)C(=O)N1CCN(C(=O)[C@H]3CN3)CC1)C(=O)N1CCC[C@H](N1)C(=O)OCC(C)(C)C2 [Example 177, 4-((R)-aziridine-2-carbonyl)-N-((2S)-1-(((6^3S,4S)-1^1-ethyl-2^5-hydroxy-1^2-(2-((S)-1-methoxyethyl)pyridin-3-yl)-10,10-dimethyl-5,7-dioxo-6^1,6^2,6^3,6^4,6^5,6^6-hexahydro-1^1H-8-oxa-1(5,3)-indola-6(1,3)-pyridazina-2(1,3)-benzenacycloundecaphane-4-yl)amino)-3-methyl-1-oxobutan-2-yl)-N-methylpiperazine-1-carboxamide] |  |  |  |  |  | 10 to 100 | 10 to 100 | 10 to 100 | 10 to 100 | 10 to 100 | 10 to 100 | 100 to 1000 | 10 to 100
CCn1c(-c2cccnc2[C@H](C)OC)c2c3cc(ccc31)-c1cc(O)cc(c1)C[C@H](NC(=O)[C@H](C(C)C)N(C)C(=O)CC1CN(C(=O)[C@@H]3CN3)C1)C(=O)N1CCC[C@H](N1)C(=O)OCC(C)(C)C2 [Example 178] |  |  |  |  |  | 10 to 100 | 100 to 1000 | 100 to 1000 | 100 to 1000 | 10 to 100 | 100 to 1000 | 100 to 1000 | 10 to 100
CCn1c(-c2cccnc2[C@H](C)OC)c2c3cc(ccc31)-c1cc(O)cc(c1)C[C@H](NC(=O)[C@H](C(C)C)N(C)C(=O)CC1CN(C(=O)[C@H]3CN3)C1)C(=O)N1CCC[C@H](N1)C(=O)OCC(C)(C)C2 [Example 179] |  |  |  |  |  | 10 to 100 | 100 to 1000 | 100 to 1000 | 100 to 1000 | 10 to 100 | 100 to 1000 | 100 to 1000 | 10 to 100
CCn1c(-c2cccnc2[C@H](C)OC)c2c3cc(ccc31)-c1cc(O)cc(c1)C[C@H](NC(=O)[C@H](C(C)C)N(C)C(=O)C1CC3(C1)CN(C(=O)[C@@H]1CN1)C3)C(=O)N1CCC[C@H](N1)C(=O)OCC(C)(C)C2 [Example 180] |  |  |  |  |  | 100 to 1000 | 100 to 1000 | 100 to 1000 | 100 to 1000 | 100 to 1000 | 100 to 1000 | 1000 to 10000 | 10 to 100
CCn1c(-c2cccnc2[C@H](C)OC)c2c3cc(ccc31)-c1cc(O)cc(c1)C[C@H](NC(=O)[C@H](C(C)C)N(C)C(=O)[C@H]1C[C@H](NC(=O)[C@H]3CN3)C1)C(=O)N1CCC[C@H](N1)C(=O)OCC(C)(C)C2 [Example 182] |  |  |  |  |  | 10 to 100 | 10 to 100 | 10 to 100 | 10 to 100 | 10 to 100 | 10 to 100 | 100 to 1000 | < 10
CCn1c(-c2cccnc2[C@H](C)OC)c2c3cc(ccc31)-c1cc(O)cc(c1)C[C@H](NC(=O)[C@H](C(C)C)N(C)C(=O)N1CCN(C(=O)[C@@H]3CN3)C(=O)C1)C(=O)N1CCC[C@H](N1)C(=O)OCC(C)(C)C2 [Example 194] |  |  |  |  |  | 100 to 1000 | 100 to 1000 | 10 to 100 | 100 to 1000 | 100 to 1000 | 100 to 1000 | 100 to 1000 | 10 to 100
CCn1c(-c2cccnc2[C@H](C)OC)c2c3cc(ccc31)-c1cc(O)cc(c1)C[C@H](NC(=O)[C@H](C(C)C)N(C)C(=O)[C@@H]1OCC[C@@H]1c1ccccc1)C(=O)N1CCC[C@H](N1)C(=O)OCC(C)(C)C2 [Example A415] |  | < 10 |  |  |  |  |  |  |  |  |  |  | 
